Tests used:
Assay in all cases: relative viability (nuclei count vs DMSO), 5 days (fraction); higher = more cells survive
[1] = compound: COc1cc2ncn(-c3cc(OCc4ccccc4C(F)(F)F)c(C(N)=O)s3)c2cc1OC + COc1cc2c(Oc3ccc(NC(=O)C4(C(=O)Nc5ccc(F)cc5)CC4)cc3F)ccnc2cc1OCCCN1CCOCC1 [Foretinib] (partner 0.25 µM)
Summary of the method: (§1)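 After 5 days of treatment, lung cancer cells in 1536-well plates were fixed and stained in a single step (final 0.05% Triton X-100, 1% formaldehyde, 1 ug/ml Hoechst) and their nuclei counted on 4× images. Treatment had been applied by pin tool the day after seeding as one drug alone or as a fixed anchor-drug dose with five library-drug doses (not always all listed) in √10 steps. Relative viability is the nuclei count of treated wells divided by that of vehicle wells, and values are medians of duplicate plates.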

[2] = compound: COc1cc2ncn(-c3cc(OCc4ccccc4C(F)(F)F)c(C(N)=O)s3)c2cc1OC + O=C(CCCCCCC(=O)Nc1ccccc1)NO [Vorinostat] (partner 1 µM)
Summary of the method: as §1

[3] = compound: COc1cc2ncn(-c3cc(OCc4ccccc4C(F)(F)F)c(C(N)=O)s3)c2cc1OC + CS(=O)(=O)N1CCN(Cc2cc3nc(-c4cccc5[nH]ncc45)nc(N4CCOCC4)c3s2)CC1 [Pictilisib] (partner 1 µM)
Summary of the method: as §1

[4] = compound: COc1cc2ncn(-c3cc(OCc4ccccc4C(F)(F)F)c(C(N)=O)s3)c2cc1OC + NC(=O)Nc1cc(-c2cccc(F)c2)sc1C(=O)N[C@H]1CCCNC1 [AZD7762] (partner 0.2 µM)
Summary of the method: as §1

Cell Line	relative viability ([1]; first compound 0.05 µM)	relative viability ([1]; first compound 0.1581 µM)	relative viability ([1]; first compound 0.5 µM)	relative viability ([1]; first compound 1.581 µM)	relative viability ([1]; first compound 5 µM)	relative viability ([2]; first compound 0.05 µM)	relative viability ([2]; first compound 0.1581 µM)	relative viability ([2]; first compound 0.5 µM)	relative viability ([2]; first compound 1.581 µM)	relative viability ([2]; first compound 5 µM)	relative viability ([3]; first compound 0.05 µM)	relative viability ([3]; first compound 0.1581 µM)	relative viability ([3]; first compound 0.5 µM)	relative viability ([3]; first compound 1.581 µM)	relative viability ([3]; first compound 5 µM)	relative viability ([4]; first compound 0.05 µM)	relative viability ([4]; first compound 0.1581 µM)	relative viability ([4]; first compound 0.5 µM)	relative viability ([4]; first compound 1.581 µM)	relative viability ([4]; first compound 5 µM)
NCI-H2228	0.85	0.739	0.351	0.1	0.162	0.283	0.575	0.196	0.111	0.104	0.331	0.423	0.237	0.165	0.303	–	–	–	–	–
NCI-H2087	1.16	1.21	0.261	0.117	0.128	0.639	0.573	0.163	0.0594	0.121	1.11	0.556	0.454	0.211	0.134	1.37	1.22	0.575	0.12	0.109
LU99A	0.564	0.87	0.572	0.302	0.216	0.445	0.401	0.196	0.123	0.115	0.307	0.342	0.271	0.159	0.15	0.306	0.385	0.226	0.132	0.0907
NCI-H1355	0.935	0.888	0.642	0.218	0.139	0.592	0.624	0.457	0.154	0.13	0.499	0.399	0.385	0.182	0.151	0.793	0.747	0.456	0.163	0.137
NCI-H520	0.892	0.836	0.357	0.249	0.204	0.343	0.621	0.215	0.179	0.183	0.29	0.316	0.345	0.193	0.172	–	–	–	–	–
NCI-H727	0.929	0.941	0.639	0.309	0.476	1.28	1.14	0.673	0.579	0.591	0.392	0.373	0.403	0.245	0.188	0.712	0.495	0.504	0.527	0.487
NCI-H661	0.908	0.866	0.854	0.322	0.27	0.843	0.753	0.293	0.269	0.223	0.486	0.328	0.458	0.259	0.257	–	–	–	–	–
NCI-H650	0.995	1.08	0.779	0.348	0.637	0.425	0.438	0.279	0.137	0.143	0.959	0.781	0.642	0.224	0.396	1.21	1.01	0.92	0.561	0.581
UMC-11	0.893	0.836	0.156	0.18	0.145	0.283	0.22	0.136	0.131	0.104	0.727	0.81	0.226	0.149	0.121	–	–	–	–	–
COR-L23	0.94	1.04	0.663	0.158	0.118	0.381	0.416	0.162	0.0758	0.0932	0.876	0.9	0.533	0.0929	0.0905	–	–	–	–	–
SW 1573	0.927	0.94	0.825	0.157	0.567	0.834	0.691	0.219	0.142	0.0957	0.529	0.377	0.367	–	0.176	–	–	–	–	–
NCI-H1650	1.04	1.01	1.08	0.13	0.139	0.484	0.555	0.36	0.154	0.133	0.52	0.615	0.322	0.156	0.146	–	–	–	–	–
SK-MES-1	0.892	0.877	0.518	–	0.667	1.06	1.01	0.212	0.174	0.147	0.343	0.414	0.292	0.132	0.213	–	–	–	–	–
NCI-H2009	1.07	1.1	0.89	0.354	0.248	0.667	0.607	0.302	0.0531	0.0578	0.783	0.417	0.325	0.166	0.152	–	–	–	–	–
NCI-H2023	0.765	0.799	0.725	0.416	0.0871	0.544	0.711	0.168	0.107	0.0613	0.228	0.287	0.196	0.12	0.0888	–	–	–	–	–
COR-L 105	1.2	1.2	1.17	0.391	0.302	0.728	0.854	0.815	0.304	0.254	0.475	0.386	0.267	0.279	0.259	–	–	–	–	–
NCI-H1563	0.839	0.897	1.28	0.767	0.567	–	–	–	–	–	0.684	0.607	0.683	0.55	0.5	–	–	–	–	–
EBC-1	0.0982	0.102	0.0761	0.0874	0.0751	–	–	–	–	–	0.478	0.383	0.145	0.134	0.141	–	–	–	–	–
SK-LU-1	0.811	0.765	0.32	0.219	0.206	0.615	0.529	0.301	0.304	0.257	0.568	0.516	0.423	0.213	0.178	–	–	–	–	–
Calu-6	0.791	0.612	0.203	0.0691	0.0725	–	–	–	–	–	0.821	0.735	0.221	0.0967	0.102	–	–	–	–	–
HCC-44	–	–	–	–	–	1.14	1.03	0.852	0.331	0.247	0.76	0.601	0.632	0.104	0.11	1.03	1.04	0.991	0.549	0.375
